Test results taken from PubChem BioAssay AID2060497 (Molecular Pharmacology Branch, DTP, NCI, 2025).

Tested on: 317291-083-R-J1-PDC complex spheroids, viability
Test: Anticancer human tumor 317291-083-R-J1-PDC patient-derived soft tissue sarcoma cell line growth inhibition [GQUAD]
Settings: for IC50: curve of first compound; for viability, T/C: stronger effect = lower value
Method in brief: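 Multi-cell-type spheroids of tumor cells with HUVEC and mesenchymal stem cells, treated with drug combinations. Concentrations descend in half-log steps from near clinical Cmax, or from 10 microM where Cmax is unknown; viability read-out.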

[1] = second compound 0.0316 µM, first compound 0.0316 µM
[2] = second compound 0.0316 µM, first compound 0.1 µM
[3] = second compound 0.0316 µM, first compound 0.316 µM
[4] = second compound 0.0316 µM, first compound 1 µM
[5] = second compound 0.0316 µM, first compound 3.16 µM
[6] = second compound 0.0316 µM, first compound 10 µM
[7] = second compound 0.1 µM, first compound 0.0316 µM
[8] = second compound 0.1 µM, first compound 0.1 µM
[9] = second compound 0.1 µM, first compound 0.316 µM
[10] = second compound 0.1 µM, first compound 1 µM
[11] = second compound 0.1 µM, first compound 3.16 µM
[12] = second compound 0.1 µM, first compound 10 µM
[13] = second compound 0.316 µM, first compound 0.0316 µM
[14] = second compound 0.316 µM, first compound 0.1 µM
[15] = second compound 0.316 µM, first compound 0.316 µM
[16] = second compound 0.316 µM, first compound 1 µM
[17] = second compound 0.316 µM, first compound 3.16 µM
[18] = second compound 0.316 µM, first compound 10 µM
[19] = second compound 1 µM, first compound 0.0316 µM
[20] = second compound 1 µM, first compound 0.1 µM
[21] = second compound 1 µM, first compound 0.316 µM
[22] = second compound 1 µM, first compound 1 µM
[23] = second compound 1 µM, first compound 3.16 µM
[24] = second compound 1 µM, first compound 10 µM
[25] = second compound 3.16 µM, first compound 0.0316 µM
[26] = second compound 3.16 µM, first compound 0.1 µM
[27] = second compound 3.16 µM, first compound 0.316 µM
[28] = second compound 3.16 µM, first compound 1 µM
[29] = second compound 3.16 µM, first compound 3.16 µM
[30] = second compound 3.16 µM, first compound 10 µM
[31] = second compound 10 µM, first compound 0.0316 µM
[32] = second compound 10 µM, first compound 0.1 µM
[33] = second compound 10 µM, first compound 0.316 µM
[34] = second compound 10 µM, first compound 1 µM
[35] = second compound 10 µM, first compound 3.16 µM
[36] = second compound 10 µM, first compound 10 µM
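Further: spheroids exposed to compounds for one week before readout.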
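Wherever viability, T/C is given: percent viability relative to DMSO vehicle wells taken as 100%.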

`CC1COCCN1c1cc(-c2ccnn2C)c2ccnc(-c3ccn[nH]3)c2n1` (stereo not drawn) + Cc1[nH]c2ccc(F)cc2c1-c1nc2c3cccnc3c3ncccc3c2[nH]1 was tested, and the IC50 (second compound 0.0316 µM) was 88.8 nM, the IC50 (second compound 0.1 µM) was 75.1 nM and the IC50 (second compound 0.316 µM) was 64.4 nM. It also gave an IC50 (second compound 1 µM) of 62.5 nM, an IC50 (second compound 3.16 µM) of 65.4 nM and an IC50 (second compound 10 µM) of 70.9 nM. It also gave a viability, T/C [1] of 87.9%, a viability, T/C [2] of 45.6% and a viability, T/C [3] of 16.4%. For the same compound, the viability, T/C [4] was 11.7%, the viability, T/C [5] was 13% and the viability, T/C [6] was 15.1%. For the same compound, the viability, T/C [7] was 89.4%, the viability, T/C [8] was 36.9% and the viability, T/C [9] was 14.7%. It also gave a viability, T/C [10] of 13.8%, a viability, T/C [11] of 13.6% and a viability, T/C [12] of 11.5%. It also gave a viability, T/C [13] of 77.7%, a viability, T/C [14] of 33% and a viability, T/C [15] of 13.8%. It also gave a viability, T/C [16] of 14.1%, a viability, T/C [17] of 11.5% and a viability, T/C [18] of 14.4%. For the same compound, the viability, T/C [19] was 76.1%, the viability, T/C [20] was 31.9% and the viability, T/C [21] was 18%. The viability, T/C [22] was 14.8%, the viability, T/C [23] was 15.3% and the viability, T/C [24] was 10.1%. For the same compound, the viability, T/C [25] was 60.7%, the viability, T/C [26] was 43.7% and the viability, T/C [27] was 13.3%. It also gave a viability, T/C [28] of 9.76%, a viability, T/C [29] of 9.63% and a viability, T/C [30] of 14.1%. The viability, T/C [31] was 89%, the viability, T/C [32] was 33.4% and the viability, T/C [33] was 13.8%. It also gave a viability, T/C [34] of 8.91%, a viability, T/C [35] of 10% and a viability, T/C [36] of 12.1%.

`CC1COCCN1c1cc(C2(O)CC3CCC(C2)O3)c2cnn(-c3ccn[nH]3)c2n1` (stereo not drawn) + Cc1[nH]c2ccc(F)cc2c1-c1nc2c3cccnc3c3ncccc3c2[nH]1 was tested, and the IC50 (second compound 0.0316 µM) was 71.4 nM, the IC50 (second compound 0.1 µM) was 54.7 nM and the IC50 (second compound 0.316 µM) was 39.2 nM. The IC50 (second compound 1 µM) was 51.7 nM, the IC50 (second compound 3.16 µM) was 50.2 nM and the IC50 (second compound 10 µM) was 33.7 nM. For the same compound, the viability, T/C [1] was 84.1%, the viability, T/C [2] was 34.8% and the viability, T/C [3] was 16%. For the same compound, the viability, T/C [4] was 22.8%, the viability, T/C [5] was 13.2% and the viability, T/C [6] was 3.15%. It also gave a viability, T/C [7] of 68.5%, a viability, T/C [8] of 29.5% and a viability, T/C [9] of 13.9%. The viability, T/C [10] was 12.8%, the viability, T/C [11] was 10.4% and the viability, T/C [12] was 3.93%. For the same compound, the viability, T/C [13] was 55.7%, the viability, T/C [14] was 27.9% and the viability, T/C [15] was 14.8%. For the same compound, the viability, T/C [16] was 20.1%, the viability, T/C [17] was 12.1% and the viability, T/C [18] was 3.04%. It also gave a viability, T/C [19] of 66.4%, a viability, T/C [20] of 26.4% and a viability, T/C [21] of 18.6%. It also gave a viability, T/C [22] of 10.8%, a viability, T/C [23] of 11.3% and a viability, T/C [24] of 2.71%. The viability, T/C [25] was 69.7%, the viability, T/C [26] was 20.4% and the viability, T/C [27] was 10.7%. For the same compound, the viability, T/C [28] was 14.3%, the viability, T/C [29] was 7.98% and the viability, T/C [30] was 2.88%. It also gave a viability, T/C [31] of 52.3%, a viability, T/C [32] of 18.9% and a viability, T/C [33] of 14%. The viability, T/C [34] was 13.8%, the viability, T/C [35] was 10.7% and the viability, T/C [36] was 3.52%.

`CC1COCCN1c1cc(C2(S(C)(=N)=O)CC2)nc(-c2ccnc3[nH]ccc23)n1` (stereo not drawn) + Cc1[nH]c2ccc(F)cc2c1-c1nc2c3cccnc3c3ncccc3c2[nH]1 showed an IC50 (second compound 0.0316 µM) of 1530 nM, an IC50 (second compound 0.1 µM) of 1320 nM and an IC50 (second compound 0.316 µM) of 1350 nM. It also gave an IC50 (second compound 1 µM) of 1210 nM, an IC50 (second compound 3.16 µM) of 792 nM and an IC50 (second compound 10 µM) of 613 nM. The viability, T/C [1] was 109%, the viability, T/C [2] was 112% and the viability, T/C [3] was 90.5%. The viability, T/C [4] was 64%, the viability, T/C [5] was 27.9% and the viability, T/C [6] was 15.4%. The viability, T/C [7] was 93.3%, the viability, T/C [8] was 93.9% and the viability, T/C [9] was 85.8%. It also gave a viability, T/C [10] of 57.7%, a viability, T/C [11] of 25.2% and a viability, T/C [12] of 13.2%. The viability, T/C [13] was 91.5%, the viability, T/C [14] was 98.6% and the viability, T/C [15] was 88.7%. For the same compound, the viability, T/C [16] was 59%, the viability, T/C [17] was 24.3% and the viability, T/C [18] was 14.7%. The viability, T/C [19] was 101%, the viability, T/C [20] was 97.5% and the viability, T/C [21] was 97.3%. The viability, T/C [22] was 54.8%, the viability, T/C [23] was 22.1% and the viability, T/C [24] was 11.3%. It also gave a viability, T/C [25] of 84%, a viability, T/C [26] of 82.8% and a viability, T/C [27] of 78%. For the same compound, the viability, T/C [28] was 42.5%, the viability, T/C [29] was 17.7% and the viability, T/C [30] was 11%. The viability, T/C [31] was 53%, the viability, T/C [32] was 61.5% and the viability, T/C [33] was 86.4%. It also gave a viability, T/C [34] of 37.4%, a viability, T/C [35] of 16.8% and a viability, T/C [36] of 8.56%.

`COc1ccc([C@@H](O)c2cc(-c3ncnc4cc(N5CCOCC5)ccc34)c(F)cc2Cl)nn1` + Cc1[nH]c2ccc(F)cc2c1-c1nc2c3cccnc3c3ncccc3c2[nH]1 showed an IC50 (second compound 0.0316 µM) of 8490 nM, an IC50 (second compound 0.1 µM) of 7300 nM and an IC50 (second compound 0.316 µM) greater than 10000 nM. The IC50 (second compound 1 µM) was 5890 nM, the IC50 (second compound 3.16 µM) was 3910 nM and the IC50 (second compound 10 µM) was 2250 nM. It also gave a viability, T/C [1] of 103%, a viability, T/C [2] of 91.6% and a viability, T/C [3] of 105%. The viability, T/C [4] was 79.6%, the viability, T/C [5] was 72.2% and the viability, T/C [6] was 46.3%. The viability, T/C [7] was 102%, the viability, T/C [8] was 101% and the viability, T/C [9] was 86.8%. The viability, T/C [10] was 73.7%, the viability, T/C [11] was 69.9% and the viability, T/C [12] was 42.6%. The viability, T/C [13] was 99.5%, the viability, T/C [14] was 95.4% and the viability, T/C [15] was 96.6%. It also gave a viability, T/C [16] of 92.5%, a viability, T/C [17] of 86.2% and a viability, T/C [18] of 53%. The viability, T/C [19] was 90.6%, the viability, T/C [20] was 110% and the viability, T/C [21] was 88.6%. It also gave a viability, T/C [22] of 78.5%, a viability, T/C [23] of 64.3% and a viability, T/C [24] of 39.1%. It also gave a viability, T/C [25] of 72.4%, a viability, T/C [26] of 81.8% and a viability, T/C [27] of 76.4%. The viability, T/C [28] was 91.7%, the viability, T/C [29] was 55.6% and the viability, T/C [30] was 25.2%. The viability, T/C [31] was 68%, the viability, T/C [32] was 66.5% and the viability, T/C [33] was 79%. It also gave a viability, T/C [34] of 54.8%, a viability, T/C [35] of 47% and a viability, T/C [36] of 16%.
